In US6703347B2, “Isothiazole derivatives and their use as pesticides” (Syngenta Limited, priority 2000, dated 2004):

Test system: peach potato aphids (Myzus persicae)
Experiment: not given
Settings: 500 ppm by weight; infested Chinese cabbage leaves sprayed; mortality assessed after three days

SMILES | mortality (score) Mp
Cc1nsc(NC(=O)C(F)c2ccc3oc(CC(C)C)nc3c2)c1Cl (stereo not shown) [Table 5 Compound 6] | 9 (9 indicates 80-100% mortality)
Cc1nsc(NC(=O)C(F)c2ccc3oc(C(F)(F)C(F)(F)C(F)(F)F)nc3c2)c1Cl (stereo not shown) [Table 5 Compound 10] | 9 (9 indicates 80-100% mortality)
CCc1nsc(NC(=O)C(CC)c2ccc3oc(C(F)(F)C(F)(F)C(F)(F)F)nc3c2)c1Cl (stereo not shown) [Table 2 Compound 90] | 0 (represents less than 40% mortality)
CCOCN(C(=O)C(C)c1ccc2sc(CC(C)C)nc2c1)c1snc(CC)c1Cl (stereo not shown) [Table 39 Compound 156] | 9 (9 indicates 80-100% mortality)
CCOCN(C(=O)C(C)c1ccc2oc(CC(C)C)nc2c1)c1snc(CC)c1Cl (stereo not shown) [Table 1 Compound 156] | 9 (9 indicates 80-100% mortality)
CCOCN(C(=O)C(C)c1ccc2oc(CC(C)(C)C)nc2c1)c1snc(CC)c1Cl (stereo not shown) [Table 1 Compound 157] | 9 (9 indicates 80-100% mortality)
CCc1nsc(NC(=O)C(C)c2ccc3oc(CC(C)C)nc3c2)c1Cl (stereo not shown) [Table 1 Compound 86] | 9 (9 indicates 80-100% mortality)
Cc1nsc(NC(=O)C(C)c2ccc3oc(CC(C)C)nc3c2)c1Cl (stereo not shown) [Table 1 Compound 6] | 0 (represents less than 40% mortality)
CCc1nsc(NC(=O)C(C)c2ccc3sc(CC(C)(C)C)nc3c2)c1Cl (stereo not shown) [Table 39 Compound 87] | 0 (represents less than 40% mortality)
CCC(C(=O)Nc1snc(C)c1Cl)c1ccc2oc(C(F)(F)C(F)(F)C(F)(F)F)nc2c1 (stereo not shown) [Table 2 Compound 10] | 5 (5 indicates 40-79% mortality)

Test system: corn root worm (Diabrotica balteata)
Experiment: pesticidal test against corn root worm
Settings: liquid composition containing 500 ppm by weight of compound
Procedure: (§1) The activities of individual compounds of formula (I) were determined using a variety of pests. The pests were treated with a liquid composition containing 500 parts per million (ppm) by weight of a compound of formula (I). Each composition was made by dissolving the compound in an acetone and ethanol (50:50 by volume) mixture and diluting the solution with water containing 0.05% by volume of a wetting agent, SYNPERONIC NP8, until the liquid composition contained the required concentration of the compound.
(§2) The test procedure adopted with regard to each pest was essentially the same and comprised supporting a number of the pests on a medium, which was usually a substrate, a host plant or a foodstuff on which the pests feed, and treating either or both the medium and the pests with a composition. Pest mortality was assessed usually between two and five days after treatment.
(§3) Similar tests were conducted against, independently, two-spotted spider mites (Tetranychus urticae), fruit flies (Drosophila melanogaster), tobacco budworms (Heliothis virescens), diamond back moth (Plutella xylostella) and corn root worm (Diabrotica balteata).

SMILES | mortality (score) Db
Cc1nsc(NC(=O)C(F)c2ccc3oc(CC(C)C)nc3c2)c1Cl (stereo not shown) [Table 5 Compound 6] | 9 (9 indicates 80-100% mortality)
Cc1nsc(NC(=O)C(F)c2ccc3oc(C(F)(F)C(F)(F)C(F)(F)F)nc3c2)c1Cl (stereo not shown) [Table 5 Compound 10] | 9 (9 indicates 80-100% mortality)
CCc1nsc(NC(=O)C(CC)c2ccc3oc(C(F)(F)C(F)(F)C(F)(F)F)nc3c2)c1Cl (stereo not shown) [Table 2 Compound 90] | 0 (represents less than 40% mortality)
CCOCN(C(=O)C(C)c1ccc2oc(CC(C)(C)C)nc2c1)c1snc(CC)c1Cl (stereo not shown) [Table 1 Compound 157] | 9 (9 indicates 80-100% mortality)
CCc1nsc(NC(=O)C(C)c2ccc3oc(CC(C)C)nc3c2)c1Cl (stereo not shown) [Table 1 Compound 86] | 9 (9 indicates 80-100% mortality)
Cc1nsc(NC(=O)C(C)c2ccc3oc(CC(C)C)nc3c2)c1Cl (stereo not shown) [Table 1 Compound 6] | 9 (9 indicates 80-100% mortality)
CCc1nsc(NC(=O)C(C)c2ccc3sc(CC(C)(C)C)nc3c2)c1Cl (stereo not shown) [Table 39 Compound 87] | 9 (9 indicates 80-100% mortality)
CCC(C(=O)Nc1snc(C)c1Cl)c1ccc2oc(C(F)(F)C(F)(F)C(F)(F)F)nc2c1 (stereo not shown) [Table 2 Compound 10] | 9 (9 indicates 80-100% mortality)

Test system: diamond back moth (Plutella xylostella)
Experiment: pesticidal test against diamond back moth
Settings: liquid composition containing 500 ppm by weight of compound
Procedure: as §1, §2, §3

SMILES | mortality (score) Px
Cc1nsc(NC(=O)C(F)c2ccc3oc(CC(C)C)nc3c2)c1Cl (stereo not shown) [Table 5 Compound 6] | 9 (9 indicates 80-100% mortality)
Cc1nsc(NC(=O)C(F)c2ccc3oc(C(F)(F)C(F)(F)C(F)(F)F)nc3c2)c1Cl (stereo not shown) [Table 5 Compound 10] | 9 (9 indicates 80-100% mortality)
CCOCN(C(=O)C(C)c1ccc2sc(CC(C)C)nc2c1)c1snc(CC)c1Cl (stereo not shown) [Table 39 Compound 156] | 9 (9 indicates 80-100% mortality)
CCOCN(C(=O)C(C)c1ccc2oc(CC(C)(C)C)nc2c1)c1snc(CC)c1Cl (stereo not shown) [Table 1 Compound 157] | 9 (9 indicates 80-100% mortality)
CCc1nsc(NC(=O)C(C)c2ccc3oc(CC(C)C)nc3c2)c1Cl (stereo not shown) [Table 1 Compound 86] | 9 (9 indicates 80-100% mortality)
Cc1nsc(NC(=O)C(C)c2ccc3oc(CC(C)C)nc3c2)c1Cl (stereo not shown) [Table 1 Compound 6] | 9 (9 indicates 80-100% mortality)
CCc1nsc(NC(=O)C(C)c2ccc3sc(CC(C)(C)C)nc3c2)c1Cl (stereo not shown) [Table 39 Compound 87] | 9 (9 indicates 80-100% mortality)

Test system: tobacco budworms (Heliothis virescens)
Experiment: pesticidal test against tobacco budworms
Settings: liquid composition containing 500 ppm by weight of compound
Procedure: as §1, §2, §3

SMILES | mortality (score) Hv
Cc1nsc(NC(=O)C(F)c2ccc3oc(C(F)(F)C(F)(F)C(F)(F)F)nc3c2)c1Cl (stereo not shown) [Table 5 Compound 10] | 9 (9 indicates 80-100% mortality)
CCc1nsc(NC(=O)C(CC)c2ccc3oc(C(F)(F)C(F)(F)C(F)(F)F)nc3c2)c1Cl (stereo not shown) [Table 2 Compound 90] | 9 (9 indicates 80-100% mortality)
CCOCN(C(=O)C(C)c1ccc2sc(CC(C)C)nc2c1)c1snc(CC)c1Cl (stereo not shown) [Table 39 Compound 156] | 9 (9 indicates 80-100% mortality)
CCOCN(C(=O)C(C)c1ccc2oc(CC(C)(C)C)nc2c1)c1snc(CC)c1Cl (stereo not shown) [Table 1 Compound 157] | 9 (9 indicates 80-100% mortality)
CCc1nsc(NC(=O)C(C)c2ccc3sc(CC(C)(C)C)nc3c2)c1Cl (stereo not shown) [Table 39 Compound 87] | 9 (9 indicates 80-100% mortality)
CCC(C(=O)Nc1snc(C)c1Cl)c1ccc2oc(C(F)(F)C(F)(F)C(F)(F)F)nc2c1 (stereo not shown) [Table 2 Compound 10] | 9 (9 indicates 80-100% mortality)

Test system: fruit flies (Drosophila melanogaster)
Experiment: pesticidal test against fruit flies
Settings: liquid composition containing 500 ppm by weight of compound

SMILES | mortality (score) Dm
Cc1nsc(NC(=O)C(F)c2ccc3oc(CC(C)C)nc3c2)c1Cl (stereo not shown) [Table 5 Compound 6] | 9 (9 indicates 80-100% mortality)
Cc1nsc(NC(=O)C(F)c2ccc3oc(C(F)(F)C(F)(F)C(F)(F)F)nc3c2)c1Cl (stereo not shown) [Table 5 Compound 10] | 9 (9 indicates 80-100% mortality)
CCc1nsc(NC(=O)C(CC)c2ccc3oc(C(F)(F)C(F)(F)C(F)(F)F)nc3c2)c1Cl (stereo not shown) [Table 2 Compound 90] | 0 (represents less than 40% mortality)
CCOCN(C(=O)C(C)c1ccc2sc(CC(C)C)nc2c1)c1snc(CC)c1Cl (stereo not shown) [Table 39 Compound 156] | 0 (represents less than 40% mortality)
CCOCN(C(=O)C(C)c1ccc2oc(CC(C)(C)C)nc2c1)c1snc(CC)c1Cl (stereo not shown) [Table 1 Compound 157] | 0 (represents less than 40% mortality)
CCc1nsc(NC(=O)C(C)c2ccc3oc(CC(C)C)nc3c2)c1Cl (stereo not shown) [Table 1 Compound 86] | 9 (9 indicates 80-100% mortality)
Cc1nsc(NC(=O)C(C)c2ccc3oc(CC(C)C)nc3c2)c1Cl (stereo not shown) [Table 1 Compound 6] | 0 (represents less than 40% mortality)
CCc1nsc(NC(=O)C(C)c2ccc3sc(CC(C)(C)C)nc3c2)c1Cl (stereo not shown) [Table 39 Compound 87] | 0 (represents less than 40% mortality)
CCC(C(=O)Nc1snc(C)c1Cl)c1ccc2oc(C(F)(F)C(F)(F)C(F)(F)F)nc2c1 (stereo not shown) [Table 2 Compound 10] | 0 (represents less than 40% mortality)
